Test results: ChEMBL document CHEMBL3763033, “New quinoline derivatives as nicotinic receptor modulators” (Eur J Med Chem, 2016)
The source made the active and inactive calls. No cut-off for these calls is given here.

Columns and labels:
Rattus norvegicus [1] = species: Rattus norvegicus; test: Displacement of [3H]cytisine from Wistar rat cerebral cortex alpha4beta2* nAChR at 1 uM incubated for 75 mins by competition binding assay; type: tissue-based
Rattus norvegicus [2] = species: Rattus norvegicus; test: Displacement of [3H]methyllycaconitine from Sprague-Dawley rat brain alpha7* nAChR at 1 uM incubated for 2.5 hrs by liquid scintillation counting analysis; type: tissue-based
[3] = molecular target: T1, Neuronal acetylcholine receptor subunit alpha-7 (Homo sapiens, UniProt P36544); test: Agonist activity at human alpha7 receptor expressed in mouse Neuro2a cells assessed as induction of intracellular calcium level preincubated with PNU-120596 for 20 mins followed by compound addition measured every 2 sec for 3 mins by fluorescence microplate reader analysis; type: cell-based
[4] = Displacement of [3H]cytisine from Wistar rat cerebral cortex alpha4beta2* nAChR incubated for 75 mins by competition binding assay; type: tissue-based
[5] = Displacement of [3H]methyllycaconitine from Sprague-Dawley rat brain alpha7* nAChR incubated for 2.5 hrs by liquid scintillation counting analysis; type: tissue-based
[6] = molecular target: T1, Neuronal acetylcholine receptor subunit alpha-7; test: Agonist activity at human alpha7 receptor expressed in mouse Neuro2a cells assessed as induction of intracellular calcium level measured every 2 sec for 3 mins by fluorescence microplate reader analysis in presence of 2 uM alpha7 receptor antagonist alpha-cobratoxin; type: cell-based
Rattus norvegicus [7] = species: Rattus norvegicus; test: (§1) Antagonist activity at rat alpha4beta2* nAChR expressed in Xenopus oocytes assessed as inhibition of epibatidine-induced ion current at 50 uM preincubated with compound followed by 1 uM epibatidine addition along with compound treatment measured after 36 to 72 hrs by two electrode voltage clamp method; type: cell-based
Gallus gallus [8] = species: Gallus gallus; test: as §1, with “chicken alpha7/GlyR chimeric receptor” for “rat alpha4beta2* nAChR”, “acetylcholine-induced” for “epibatidine-induced”, “100” for “1”, “acetylcholine” for “epibatidine”; type: cell-based
Rattus norvegicus [9] = species: Rattus norvegicus; test: Selectivity ratio of Ki for Wistar rat cerebral cortex alpha4beta2* nAChR to Ki for Sprague-Dawley rat brain alpha7* nAChR; type: tissue-based
Rattus norvegicus [10] = species: Rattus norvegicus; test: Activation of rat alpha4beta2* nAChR expressed in Xenopus oocytes at 50 uM after 36 to 72 hrs by two electrode voltage clamp method; type: cell-based
Gallus gallus [11] = species: Gallus gallus; test: Activation of chicken alpha7/GlyR chimeric receptor expressed in Xenopus oocytes at 50 uM after 36 to 72 hrs by two electrode voltage clamp method; type: cell-based
[12] = molecular target: T1, Neuronal acetylcholine receptor subunit alpha-7; test: (§2) Antagonist activity at human alpha7 receptor expressed in mouse Neuro2a cells assessed as inhibition of acetylcholine iodide-induced intracellular calcium level at 50 uM preincubated with PNU-120596 for 20 mins followed by acetylcholine iodide addition along with compound treatment measured every 2 sec for 3 mins by fluorescence microplate reader analysis; type: cell-based
[13] = molecular target: T1, Neuronal acetylcholine receptor subunit alpha-7; test: as §2, with “300” for “50”; type: cell-based
Rattus norvegicus [14] = species: Rattus norvegicus; test: Selectivity ratio of Ki for Sprague-Dawley rat brain alpha7* nAChR to Ki for Wistar rat cerebral cortex alpha4beta2* nAChR; type: tissue-based

T1 sequence (P36544 whole entry): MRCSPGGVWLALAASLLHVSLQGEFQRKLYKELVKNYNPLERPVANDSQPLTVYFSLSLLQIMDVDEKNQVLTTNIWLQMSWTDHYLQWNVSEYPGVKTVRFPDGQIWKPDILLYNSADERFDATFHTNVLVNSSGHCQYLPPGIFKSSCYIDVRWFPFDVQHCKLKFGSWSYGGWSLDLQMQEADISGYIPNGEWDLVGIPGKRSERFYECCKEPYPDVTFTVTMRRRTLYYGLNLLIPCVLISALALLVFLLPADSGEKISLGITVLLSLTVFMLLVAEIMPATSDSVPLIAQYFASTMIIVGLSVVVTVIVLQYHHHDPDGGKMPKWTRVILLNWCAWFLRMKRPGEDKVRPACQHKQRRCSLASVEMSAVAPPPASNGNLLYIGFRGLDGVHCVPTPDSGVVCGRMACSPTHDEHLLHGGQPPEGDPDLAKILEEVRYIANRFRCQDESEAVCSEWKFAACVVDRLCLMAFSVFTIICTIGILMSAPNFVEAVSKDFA

| Structure (SMILES) | Activity (Rattus norvegicus [1]) [%] | Activity (Rattus norvegicus [2]) [%] | also measured |
| --- | --- | --- | --- |
| c1cnc2ccc(C3CN4CCC3CC4)cc2c1 (stereo not given) | < 20 | < 20 | – |
| c1cnc2ccc(N3CCN4CCC3CC4)cc2c1 | – | – | EC50 [3]: 1410 nM; Ki [4]: > 1000 nM; Ki [5]: 96 nM; Activity [6]: inactive; inhibition (Rattus norvegicus [7]): Active; inhibition (Gallus gallus [8]): Active; Ratio Ki (Rattus norvegicus [9]): 10; Activity (Rattus norvegicus [10]): inactive; Activity (Gallus gallus [11]): inactive |
| C[N+]12CCC(C1)N(C(=O)c1cccc3cnccc13)CC2 (stereo not given) | < 20 | < 20 | – |
| O=C(c1ccc2ncccc2c1)N1CCN2CCC1C2 (stereo not given) | < 20 | < 20 | – |
| O=C(c1ccc2cccnc2c1)N1CCN2CCC1C2 (stereo not given) | < 20 | < 20 | – |
| c1cncc(C2CCC3CCN2CC3)c1 (stereo not given) | – | – | Ki [5]: 11 nM |
| C[N+]12CCC(C1)N(C(=O)c1ccc3ncccc3c1)CC2 (stereo not given) | < 20 | < 20 | – |
| O=C(c1cccc2cnccc12)N1CCN2CCC1CC2 | < 20 | < 20 | – |
| O=C(Oc1ccc(Br)cc1)N1CCN2CCC1CC2 [SSR180711] | – | – | Ki [5]: 22 nM |
| O=C(N[C@H]1CN2CCC1CC2)c1cc2cccc(Cl)c2s1 [ENCENICLINE] | – | – | Ki [5]: 9.98 nM |
| C[N+]12CCC(C1)N(c1ccc3cnccc3c1)CC2 (stereo not given) | < 20 | < 20 | – |
| C[N+]12CCC(C1)N(c1ccc3ncccc3c1)CC2 (stereo not given) | < 20 | < 20 | – |
| O=C(NC1CN2CCC1CC2)c1ccc2cccnc2c1 (stereo not given) | – | – | EC50 [3]: 1570 nM; Ki [4]: > 1000 nM; Ki [5]: 287 nM; Activity [6]: inactive; inhibition [12]: Active; inhibition (Rattus norvegicus [7]): Active; inhibition (Gallus gallus [8]): Active; Ratio Ki (Rattus norvegicus [9]): 3; Activity (Rattus norvegicus [10]): inactive; Activity (Gallus gallus [11]): inactive |
| O=C(c1ccc2cccnc2c1)N1CCN2CCC1CC2 | < 20 | < 20 | – |
| c1cc2cc(N3CCN4CCC3CC4)ccc2cn1 | – | – | Ki [4]: > 1000 nM; Ki [5]: 248 nM; Ratio Ki (Rattus norvegicus [9]): 3 |
| C[N+]12C=C(c3ccc4ncccc4c3)C(CC1)CC2 | < 20 | < 20 | – |
| O=C(c1cccc2cnccc12)N1CCN2CCC1C2 (stereo not given) | < 20 | < 20 | – |
| CCN1C[C@]2(COC(=O)c3ccccc3N3C(=O)CC(C)C3=O)CC[C@H](OC)[C@@]34C2[C@H](OC)[C@](O)(C13)[C@@]1(O)C[C@H](OC)[C@H]2C[C@@H]4[C@@H]1[C@H]2OC (stereo not given in full) | – | – | Ki [5]: 1.4 nM |
| c1cc(N2CCN3CCC2CC3)c2cccnc2c1 | < 20 | < 20 | – |
| C[N+]12CCC(CC1)N(C(=O)c1ccc3cccnc3c1)CC2 | < 20 | < 20 | – |

| Structure (SMILES) | Activity (Rattus norvegicus [1]) [%] | Activity (Rattus norvegicus [2]) [%] | also measured |
| --- | --- | --- | --- |
| C[N+]12CCC(CC1)N(C(=O)c1cccc3cnccc13)CC2 | < 20 | < 20 | – |
| C[N+]12CCC(C1)N(C(=O)c1ccc3cccnc3c1)CC2 (stereo not given) | < 20 | < 20 | – |
| O=C(c1ccc2ncccc2c1)N1CCN2CCC1CC2 | < 20 | < 20 | – |
| C[N+]12CCC(CC1)C(NC(=O)c1ccc3ncccc3c1)C2 (stereo not given) | < 20 | < 20 | – |
| c1cc(N2CCN3CCC2C3)c2cccnc2c1 (stereo not given) | < 20 | < 20 | – |
| c1cc2cc(N3CCN4CCC3C4)ccc2cn1 (stereo not given) | < 20 | < 20 | – |
| C[N+]12CCC(CC1)C(NC(=O)c1cccc3cnccc13)C2 (stereo not given) | < 20 | < 20 | – |
| CN1CCC[C@H]1c1cccnc1 [NICOTINE] | – | – | Ki [4]: 2.3 nM |
| O=C(NC1CN2CCC1CC2)c1cccc2cnccc12 (stereo not given) | < 20 | < 20 | – |
| c1cnc2ccc(N3CCN4CCC3C4)cc2c1 (stereo not given) | – | – | Ki [4]: 412 nM; Ki [5]: > 1000 nM; inhibition [13]: Active; inhibition (Rattus norvegicus [7]): Active; inhibition (Gallus gallus [8]): Active; Ratio Ki (Rattus norvegicus [14]): 2; Activity (Rattus norvegicus [10]): inactive; Activity (Gallus gallus [11]): inactive |
| C1=C(c2ccc3ncccc3c2)C2CCN1CC2 | < 20 | < 20 | – |
| c1cnc2cc(N3CCN4CCC3CC4)ccc2c1 | – | – | EC50 [3]: 1090 nM; Ki [4]: > 1000 nM; Ki [5]: 117 nM; Activity [6]: inactive; inhibition (Rattus norvegicus [7]): Active; inhibition (Gallus gallus [8]): Active; Ratio Ki (Rattus norvegicus [9]): 3; Activity (Rattus norvegicus [10]): inactive; Activity (Gallus gallus [11]): inactive |
| C[N+]12CCC(CC1)N(C(=O)c1ccc3ncccc3c1)CC2 | < 20 | < 20 | – |
| C[N+]12CCC(CC1)C(NC(=O)c1ccc3cccnc3c1)C2 (stereo not given) | < 20 | < 20 | – |
| O=C(N[C@H]1CN2CCC1CC2)c1ccc(Cl)cc1 [PNU-282987] | – | – | Ki [5]: 24 nM |
| C[N+]12CCC(C1)N(c1cccc3ncccc13)CC2 (stereo not given) | < 20 | < 20 | – |
| c1cnc2cc(N3CCN4CCC3C4)ccc2c1 (stereo not given) | < 20 | < 20 | – |
| O=C(NC1CN2CCC1CC2)c1ccc2ncccc2c1 (stereo not given) | < 20 | < 20 | – |
| Cc1ccc2oc(N3CCN4CCC3CC4)nc2n1 | – | – | Ki [5]: 13.5 nM |
